In brackets after ≈: the same amount, converted by molar mass. Read-outs that look alike come from different tables or passages of the source.
Key:
Type in all cases: physicochemical
[1] = Storage stability of ticagrelor 6 mg/ml in HPβCD 40% w/w, phosphate buffer pH 7.5, at 40° C. and 75% RH
From the text: A Gradient HPLC method was used to analyze impurities in formulations using a YMC-Pack Pro C18 column (100×4.6 mm, S-3 μm 12 nm). Good separation was obtained for all the impurities. • Amine impurity: (1S,2S,3R,5S)-3-(7-amino-5-(propylsulfanyl)-3H-[1,2,3]triazolo[4,5-d]pyrimidin-3-yl)-5-(2-hydroxyethoxy)cyclopentane-1,2-diol. This is a process related degradant impurity. • Regiomer impurity: (1S, 2S, 3R, 5S)-3-((3-((1R,2S)-2-(3,4-Difluorophenyl)cyclopropyl)-5-(propylsulfanyl)-3H-[1,2,3]triazolo[4,5-d]pyrimidin-7-yl)amino)-5-(2-hydroxyethoxy)cyclopentane-1,2-diol. This is a process related degradant impurity. • Acetal impurity: 2-[[(3aR,4S,6S,6aS)-6-[7-[1R,2S)-2-(3,4-difluorophenyl)-cyclopropyl]amino]-5-(propylsulfanyl)-3H-[1,2,3]triazolo-[4,5-d]pyrimidin-3-yl]-2,2-dimethyltetrahydro-2H-3aHcyclopenta[d][1,3]dioxol-4-yl]oxy]ethan-1-ol.
First HPβCD was dissolved in a phosphate buffer solution of pH 7.5 prepared separately in water. […] The solution was filtered through a 0.22 micrometer filter and filled in USP Type I amber colored glass vials. The vials were stoppered and stored. All precautions were taken during manufacturing, such as N2 purging and avoiding direct exposure to light.

Flocculation test = experiment: Flocculation test
[2] = Bulk hold study, ticagrelor 8 mg/ml in 30% w/w HPβCD, phosphate buffer pH 7.5
Description: To investigate the impact of temperature and hold time, a new composition was prepared as per below Table 19.
In first step a phosphate buffer at pH 7.5 was prepared and the buffered solution was heated to 40° C.-45° C. HPβCD was added to the buffered solution under continuous mixing. […] It usually took 30 mins to 4 hours depending on batch size.
Then this solution was filtered through a 0.22-micron filter and packed in suitable clear or amber colored glass vials

[3] = Diluent tests of 5 mg/ml ticagrelor-cyclodextrin solutions; conditions: for Appearance, undiluted: 5 mg/ml; for Appearance in 5% dextrose / Appearance in NaCl 0.9%: diluted to 0.1 mg/ml
Description: 5 mg/ml ticagrelor-cyclodextrin solutions with varying amounts of HPβCD were diluted with normal saline, 5% dextrose solution or Ringer's lactate solution. The stability was screened.

[4] = Maximum solubility of ticagrelor in HPβCD solution without heat; conditions: aqueous with cosolvent or surfactant or cyclodextrin, read-out: Ticagrelor mg/ml (maximum solubility)
From the text: In a further example, the maximum solubility of ticagrelor in an HPβCD solution, without the use of heat, was investigated.

[5] = pH 7.5, T = 4 weeks, 40° C./75% RH
[6] = pH 7.5, T = 8 weeks, 40° C./75% RH
[7] = pH 7.5, T = 12 weeks, 40° C./75% RH
[8] = pH 7.5, T = 24 Weeks, 40° C./75% RH

CCCSc1nc(N[C@@H]2C[C@H]2c2ccc(F)c(F)c2)c2nnn([C@@H]3C[C@H](OCCO)[C@@H](O)[C@H]3O)c2n1 [Ticagrelor, (1S,2S,3R,5S)-3-{7-[(1R,2S)-2-(3,4-difluorophenyl)cyclopropylamino]5-(propylthio)-3H-(1,2,3)triazolo (4,5-D)pyrimidin-3-yl}-5-(2 hydroxyethoxy)cyclopentane-1,2-diol]
Storage stability ([1]; 40° C. and 75% Relative Humidity): good storage stability | Acetal impurity ([1]; pH 7.5, T = 0): 0.05% | Amine impurity ([1]; pH 7.5, T = 0): 0.04% | Assay Ticagrelor ([1]; pH 7.5, T = 0): 104.27% | Regiomer impurity ([1]; pH 7.5, T = 0): 0.00% | Sum Impurities >0.05 ([1]; pH 7.5, T = 0): 0.11% | Total Impurities ([1]; pH 7.5, T = 0): 0.31% | Triol impurity ([1]; pH 7.5, T = 0): 0.04% | Acetal impurity [1, 5]: 0.05% | Amine impurity [1, 5]: 0.05% | Assay Ticagrelor [1, 5]: 104.47% | Regiomer impurity [1, 5]: 0.01% | Sum Impurities >0.05 [1, 5]: 0.14% | Total Impurities [1, 5]: 0.32% | Triol impurity [1, 5]: 0.05% | Acetal impurity [1, 6]: 0.05% | Amine impurity [1, 6]: 0.05% | Assay Ticagrelor [1, 6]: 102.59% | Regiomer impurity [1, 6]: 0.04% | Sum Impurities >0.05 [1, 6]: 0.15% | Total Impurities [1, 6]: 0.29% | Triol impurity [1, 6]: 0.05% | Acetal impurity [1, 7]: 0.05% | Amine impurity [1, 7]: 0.05% | Assay Ticagrelor [1, 7]: 102.31% | Regiomer impurity [1, 7]: 0.08% | Sum Impurities >0.05 [1, 7]: 0.23% | Total Impurities [1, 7]: 0.41% | Triol impurity [1, 7]: 0.04% | Acetal impurity [1, 8]: 0.05% | Amine impurity [1, 8]: 0.07% | Assay Ticagrelor [1, 8]: 104.39% | Regiomer impurity [1, 8]: 0.16% | Sum Impurities >0.05 [1, 8]: 0.33% | Total Impurities [1, 8]: 0.35% | Triol impurity [1, 8]: 0.05% | Flocculation test (Flocculation test; HPβCD 25% w/w, ticagrelor 5 mg/ml): did not pass | Flocculation test (Flocculation test; HPβCD 30% w/w, ticagrelor 5 mg/ml): passed | Flocculation test (Flocculation test; HPβCD 35% w/w, ticagrelor 5 mg/ml): passed | Flocculation test (Flocculation test; HPβCD 35% w/w, ticagrelor 10 mg/ml): did not pass | Flocculation test (Flocculation test; HPβCD 40% w/w, ticagrelor 5 mg/ml): passed | Flocculation test (Flocculation test; HPβCD 40% w/w, ticagrelor 10 mg/ml): passed | Flocculation test (Flocculation test; SBECD 40% w/w, ticagrelor 5 mg/ml): passed | Acetal impurity ([2]; Bulk hold 45° C., T = 1 h): 0.04% | Amine impurity ([2]; Bulk hold 45° C., T = 1 h): 0.05% | Assay Ticagrelor ([2]; Bulk hold 45° C., T = 1 h): 107.87% | Sum Impurities >0.05 ([2]; Bulk hold 45° C., T = 1 h): 0.12% | Total Impurities ([2]; Bulk hold 45° C., T = 1 h): 0.20% | Triol impurity ([2]; Bulk hold 45° C., T = 1 h): 0.04% | Unnamed impurity, relative retention time 1.33 ([2]; Bulk hold 45° C., T = 1 h): 0.07% | Acetal impurity ([2]; Bulk hold 45° C., T = 110 h): 0.04% | Amine impurity ([2]; Bulk hold 45° C., T = 110 h): 0.07% | Assay Ticagrelor ([2]; Bulk hold 45° C., T = 110 h): 109.10% | Sum Impurities >0.05 ([2]; Bulk hold 45° C., T = 110 h): 0.11% | Total Impurities ([2]; Bulk hold 45° C., T = 110 h): 0.28% | Triol impurity ([2]; Bulk hold 45° C., T = 110 h): 0.05% | Unnamed impurity, relative retention time 1.33 ([2]; Bulk hold 45° C., T = 110 h): 0.03% | Acetal impurity ([2]; Bulk hold at 30° C., T0): 0.04% | Amine impurity ([2]; Bulk hold at 30° C., T0): 0.06% | Assay Ticagrelor ([2]; Bulk hold at 30° C., T0): 105.60% | Regiomer impurity ([2]; Bulk hold at 30° C., T0): 0.00% | Sum Impurities >0.05 ([2]; Bulk hold at 30° C., T0): 0.10% | Total Impurities ([2]; Bulk hold at 30° C., T0): 0.21% | Triol impurity ([2]; Bulk hold at 30° C., T0): 0.05% | Acetal impurity ([2]; Bulk hold at 30° C., T4 W): 0.04% | Amine impurity ([2]; Bulk hold at 30° C., T4 W): 0.06% | Assay Ticagrelor ([2]; Bulk hold at 30° C., T4 W): 106.14% | Regiomer impurity ([2]; Bulk hold at 30° C., T4 W): 0.00% | Sum Impurities >0.05 ([2]; Bulk hold at 30° C., T4 W): 0.06% | Total Impurities ([2]; Bulk hold at 30° C., T4 W): 0.21% | Triol impurity ([2]; Bulk hold at 30° C., T4 W): 0.04% | Acetal impurity ([2]; sealed vials, T = 1 M, 25° C.): 0.03% | Amine impurity ([2]; sealed vials, T = 1 M, 25° C.): 0.06% | Assay Ticagrelor ([2]; sealed vials, T = 1 M, 25° C.): 107.22% | Regiomer impurity ([2]; sealed vials, T = 1 M, 25° C.): 0.03% | Sum Impurities >0.05 ([2]; sealed vials, T = 1 M, 25° C.): 0.06% | Total Impurities ([2]; sealed vials, T = 1 M, 25° C.): 0.23% | Triol impurity ([2]; sealed vials, T = 1 M, 25° C.): 0.01% | Unnamed impurity, relative retention time 1.03 ([2]; sealed vials, T = 1 M, 25° C.): 0.02% | Unnamed impurity, relative retention time 1.33 ([2]; sealed vials, T = 1 M, 25° C.): 0.03% | Acetal impurity ([2]; sealed vials, T = 1 M, 40° C.): 0.00% | Amine impurity ([2]; sealed vials, T = 1 M, 40° C.): 0.06% | Assay Ticagrelor ([2]; sealed vials, T = 1 M, 40° C.): 105.16% | Regiomer impurity ([2]; sealed vials, T = 1 M, 40° C.): 0.08% | Sum Impurities >0.05 ([2]; sealed vials, T = 1 M, 40° C.): 0.21% | Total Impurities ([2]; sealed vials, T = 1 M, 40° C.): 0.28% | Triol impurity ([2]; sealed vials, T = 1 M, 40° C.): 0.00% | Unnamed impurity, relative retention time 1.03 ([2]; sealed vials, T = 1 M, 40° C.): 0.02% | Unnamed impurity, relative retention time 1.33 ([2]; sealed vials, T = 1 M, 40° C.): 0.08% | Appearance, undiluted ([3]; HPβCD 22.5% w/w): Turbid; clear after heating to 40 °C | Appearance, undiluted ([3]; HPβCD 25.0% w/w): Turbid; clear after heating to 40 °C | Appearance, undiluted ([3]; HPβCD 27.5% w/w): Turbid; clear after heating to 40 °C | Appearance, undiluted ([3]; HPβCD 30.0% w/w): Clear solution | Appearance, undiluted ([3]; HPβCD 32.5% w/w): Clear solution | Appearance in 5% dextrose ([3]; HPβCD 22.5% w/w): Clear solution | Appearance in NaCl 0.9% ([3]; HPβCD 22.5% w/w): Turbid | Appearance in 5% dextrose ([3]; HPβCD 25.0% w/w): Clear solution | Appearance in NaCl 0.9% ([3]; HPβCD 25.0% w/w): Turbid | Appearance in 5% dextrose ([3]; HPβCD 27.5% w/w): Clear solution | Appearance in NaCl 0.9% ([3]; HPβCD 27.5% w/w): Turbid | Appearance in 5% dextrose ([3]; HPβCD 30.0% w/w): Clear solution | Appearance in NaCl 0.9% ([3]; HPβCD 30.0% w/w): Turbid | Appearance in 5% dextrose ([3]; HPβCD 32.5% w/w): Clear solution | Appearance in NaCl 0.9% ([3]; HPβCD 32.5% w/w): Clear solution | Appearance with diluent ([3]; Normal saline and Ringer's lactate solution as diluent): turbid solutions | solubility ([4]; HPβCD solution 17% w/w, HPβCD 17% w/W): 4 mg/mL (≈ 7.65 mM) | solubility ([4]; HPβCD solution 22.5% w/w, HPβCD 22.5% w/W): 5 mg/mL (≈ 9.57 mM) | solubility ([4]; HPβCD solution 30% w/w, HPβCD 30% w/W): 8 mg/mL (≈ 15.3 mM) | solubility ([4]; HPβCD solution 33% w/w, HPβCD 33% w/W): 9 mg/mL (≈ 17.2 mM) | solubility ([4]; HPβCD solution 40% w/w, HPβCD 40% w/W): 13 mg/mL (≈ 24.9 mM)
